For six molecules, GI50 and TGI results are on record in PubChem BioAssay (NCI).

What all share (assay): NCI tumour cell line growth inhibition, 48 h
The subject of assay [1] is ACHN renal.
Assay [2] relates to HCT-116 colon.
Assay [3] relates to HOP-92 NSCLC.
Assay [4] has as its system NCI-H522 lung.
The subject of assay [5] is OVCAR-4 ovarian.
In assay [6] the test system is SF-268 CNS.
Assay [7] has as its system SF-539 CNS.
Assay [8] relates to SK-MEL-28 melanoma.
In assay [9] the test system is SW-620 colon.
The subject of assay [10] is UACC-62 melanoma.

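Test compounds were applied to cells in 96-well plates for 48 hours at 5 doses. GI50 = concentration required for 50% inhibition of growth. TGI is the concentration that stops growth completely.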

With `C=C(C)[C@@H]1CC[C@]2(COCCCNCCCN)CC[C@]3(C)[C@H](CC[C@@H]4[C@@]5(C)CC[C@H](OCCCN)C(C)(C)[C@@H]5CC[C@]43C)[C@@H]12`, the GI50 in assay [1] was 996 nM; in assay [2], 898 nM; in assay [3], 2100 nM; in assay [4] it was 868 nM; in assay [5], 934 nM; in [6], 6.77 µM. For the same molecule, the GI50 in [7] is 891 nM; in assay [8], 876 nM; in assay [9] it was 871 nM; in assay [10], 914 nM. In addition, the TGI was found to be 1.95 µM in assay [1]; 1670 nM in [2]; 9.76 µM in assay [3]; 1720 nM in assay [4]; 1.78 µM in assay [5]; 15.1 µM in assay [6]. For the same molecule, the TGI in assay [7] is 1.59 µM; in assay [8], 1.6 µM; in assay [9], 1.67 µM; in [10] it was 1.67 µM.

In the case of `O=C1NCN(c2ccccc2)C12CCN(CCCC(c1ccc(F)cc1)c1ccc(F)cc1)CC2`, the GI50 is 2790 nM in [1]; 1580 nM in assay [2]; 397 nM in [3]; 1510 nM in [4]; 2130 nM in [5]; 2.04 µM in assay [6]. Besides, the GI50 in assay [7] was 1710 nM; in [8] it was 1620 nM; in assay [9], 2060 nM; in assay [10], 1680 nM. Besides, the TGI in assay [1] is 7.23 µM; in [2] it was 2960 nM; in assay [3] it was 2.62 µM; in [4], 2930 nM; in assay [5], 9.98 µM; in assay [6], 4.78 µM. In addition, the TGI in assay [7] came to 3.13 µM; in [8], 3.1 µM; in [9], 4.58 µM; in assay [10], 3.15 µM.

For the molecule `Cc1cc2c(cc1C)[n+](=O)c(C(=O)/C=C/c1ccc3c(c1)OCO3)c(C)n2[O-]`, the TGI is greater than 75.8 µM in assay [1]; greater than 100000 nM in assay [2]; 69.1 µM in [3]; 79400 nM in [4]; greater than 100 µM in assay [5]; greater than 76.9 µM in assay [6]. Further, the TGI in assay [7] is greater than 100 µM; in [8], greater than 100 µM; in [9], greater than 100 µM; in assay [10], 59.5 µM.

As for `COc1cccc(-n2ncc3c(N/N=C/c4ccc(C)cc4)ncnc32)c1`, the GI50 in [1] was greater than 25000 nM; in assay [2], greater than 25000 nM; in [3], 2140 nM; in assay [4], greater than 25000 nM; in [5], greater than 25000 nM; in assay [6], greater than 25 µM. Also, the GI50 in [7], in assay [8], in assay [9] and in assay [10] was greater than 25000 nM throughout. The TGI was greater than 25 µM in assay [1]; greater than 25000 nM in [2]; greater than 25 µM in assay [3]; greater than 25000 nM in [4]; greater than 25 µM in assay [5]; greater than 25 µM in assay [6]. The TGI in assay [7], in assay [8], in assay [9] and in assay [10] was greater than 25 µM each time.

In the case of `COc1cc2c3c(n(CCCCNC(=O)OC(C)(C)C)c(=O)c2cc1OC)-c1cc2c(cc1C3=O)OCO2`, the GI50 in assay [1] is 20100 nM; in assay [2], greater than 100000 nM; in [3] it was 60300 nM; in assay [4], greater than 100000 nM; in assay [5] it was greater than 100000 nM; in assay [6], 15.3 µM. For the same molecule, the GI50 was 8390 nM in assay [7], greater than 100000 nM in assay [8], greater than 100000 nM in [9] and greater than 100000 nM in [10]. The TGI in assay [1] is greater than 100 µM; in assay [2], greater than 100000 nM; in [3], greater than 100 µM; in assay [4], greater than 100000 nM; in assay [5], greater than 100 µM; in [6], greater than 100 µM. The TGI in [7], in assay [8], in [9] and in assay [10] was greater than 100 µM each time.

For the molecule `O=C1Nc2ccccc2/C1=C\c1cccc(/C=C2/C(=O)Nc3ccccc32)n1`, the GI50 in [1] is 308 nM; in [2], 155 nM; in assay [3], 1480 nM; in [4], 208 nM; in assay [5], 718 nM; in assay [6] it was 0.362 µM. Moreover, the GI50 in assay [7] is 966 nM; in [8] it was 218 nM; in [9], 162 nM; in assay [10] it was 320 nM. Further, the TGI in [1] is 1.12 µM; in assay [2], 296 nM; in [3] it was 4.49 µM; in assay [4], 705 nM; in [5] it was 1.99 µM; in [6], 1.39 µM. The TGI in [7] was 2.23 µM; in assay [8], 0.468 µM; in assay [9], 0.329 µM; in [10], 0.962 µM.
